{"source": "PubChem BioAssay AID1259409", "about": "(Chemical Carcinogenesis Research Information System (CCRIS), 2018)", "origin": "cited, not measured here", "test_system": "rodent chemically induced tumor inhibition, incidence and multiplicity", "experiment": "CCRIS tumor inhibitor studies", "note": "Where a SMILES comes first, the peptide text is derived from it. The star is where a group is joined. Leuψ(CH2N)ThzNH2 = CC(C)C[C@@H](CN1CSC[C@H]1C(N)=O)N*; Hydrocinnamoyl = O=C(CCc1ccccc1)*", "data": [{"smiles": "c1ccc(Cn2ccnc2)cc1", "values": [{"measurement": "tumour outcome (control, treated, inhibition, significance)", "setting": "Carcinogen: 7,12-DIMETHYLBENZ[A]ANTHRACENE, 57-97-6, Dose [Inhibitor]: 100 UG IN 0.2 ML ACETONE ONCE 5 MIN BEFORE CARCINOGEN TREATMENT (STUDY DURATION: 31 WK), Route [Inhibitor]: DERMAL, Species: MOUSE, Strain/Sex: CD-1/FEMALE, Target Tissue: Type of Lesion: SKIN: PAPILLOMA, Dose [Carcinogen]: 10 NMOL IN 0.2 ML ACETONE ONCE, Promoter: 12-O-TETRADECANOYLPHORBOL-13-ACETATE, 16561-29-8", "value": "87%, 80%, 8%, not calculated"}, {"measurement": "tumour outcome (control, treated, inhibition, significance)", "setting": "Carcinogen: BENZO[A]PYRENE, 50-32-8, Dose [Inhibitor]: 100 UG IN 0.2 ML ACETONE ONCE 5 MINUTES BEFORE CARCINOGEN TREATMENT (STUDY DURATION: 31 WK), Route [Inhibitor]: DERMAL, Species: MOUSE, Strain/Sex: CD-1/FEMALE, Target Tissue: Type of Lesion: SKIN: PAPILLOMA, Dose [Carcinogen]: 400 NMOL IN 0.2 ML ACETONE ONCE, Promoter: 12-O-TETRADECANOYLPHORBOL-13-ACETATE, 16561-29-8", "value": "90%, 78%, 13%, not calculated"}]}, {"smiles": "CC(O)CCC(=O)c1cccs1", "note": "(centres undefined)", "values": [{"measurement": "tumour outcome (control, treated, inhibition, significance)", "setting": "Carcinogen: 4-(METHYLNITROSAMINO)-1-(3-PYRIDYL)-1-BUTANONE, 64091-91-4, Dose [Inhibitor]: 0, 25 UMOL IN 0.1 ML CORN OIL ONCE 2 HR PRIOR TO CARCINOGEN DOSE (STUDY DURATION: 16 WK), Route [Inhibitor]: GAVAGE, Species: MOUSE, Strain/Sex: STRAIN-A/FEMALE, Target Tissue: Type of Lesion: LUNG: ADENOMA, Dose [Carcinogen]: 10 UMOL IN 0.1 ML SALINE ONCE, Promoter: NONE USED", "value": "100%, 100%, 0%, not significant"}]}, {"smiles": "O=c1c2ccccc2[se]n1-c1ccccc1", "values": [{"measurement": "tumour outcome (control, treated, inhibition, significance)", "setting": "Carcinogen: 17BETA-ESTRADIOL, 50-28-2, Dose [Inhibitor]: 0, 0.2% IN DIET BEGINNING 5 D POST CARCINOGEN DOSE (STUDY DURATION: 7.5 MO), Route [Inhibitor]: ORAL, Species: HAMSTER, Strain/Sex: SYRIAN/MALE, Target Tissue: Type of Lesion: KIDNEY: TUMOR, Dose [Carcinogen]: 25 MG PELLET REPLACED WITH A SECOND PELLET AFTER 4 MO, Promoter: NONE USED", "value": "13/13 (100%), 8/11 (73%), 27%, p<0.05"}]}, {"smiles": "CC(C)C[C@@H](CN1CSC[C@H]1C(N)=O)NC(=O)[C@H](Cc1cnc[nH]1)NC(=O)CNC(=O)[C@@H](NC(=O)[C@H](C)NC(=O)[C@H](Cc1c[nH]c2ccccc12)NC(=O)[C@H](CCC(N)=O)NC(=O)CCc1ccccc1)C(C)C", "note": "(Hydrocinnamoyl-QWAVGH-{Leuψ(CH2N)ThzNH2})", "values": [{"measurement": "tumour outcome (control, treated, inhibition, significance)", "setting": "Carcinogen: N-NITROSOBIS(2-OXOPROPYL)AMINE, 60599-38-4, Dose [Inhibitor]: 0, 20 UG/D FROM OSMOTIC PUMP FOR 2 MO, Route [Inhibitor]: SUBCUTANEOUS IMPLANT, Species: HAMSTER, Strain/Sex: SYRIAN/FEMALE, Target Tissue: Type of Lesion: PANCREAS: ADENOCARCINOMA, Promoter: NONE USED", "value": "10/11 (91%), 7/11 (64%), 30%, not calculated"}, {"measurement": "tumour outcome (control, treated, inhibition, significance)", "setting": "Carcinogen: N-NITROSOBIS(2-OXOPROPYL)AMINE, 60599-38-4, Dose [Inhibitor]: 0, 30 UG/D FOR 2 MO, Route [Inhibitor]: SUBCUTANEOUS, Species: HAMSTER, Strain/Sex: SYRIAN/FEMALE, Target Tissue: Type of Lesion: PANCREAS: ADENOCARCINOMA, Promoter: NONE USED", "value": "11/13 (85%), 12/13 (92%), -8%, not calculated"}]}, {"smiles": "CC(C)(C)c1cc(O)ccc1O", "values": [{"measurement": "tumour outcome (control, treated, inhibition, significance)", "setting": "Carcinogen: 7,12-DIMETHYLBENZ[A]ANTHRACENE, 57-97-6, Dose [Inhibitor]: 0.8% IN POWDERED DIET BEGINNING 1 WK POST CARCINOGEN DOSE FOR 51 WK (STUDY DURATION: 52 WK), Route [Inhibitor]: ORAL, Species: RAT, Strain/Sex: SPRAGUE-DAWLEY/FEMALE, Target Tissue: Type of Lesion: EAR DUCT: BENIGN TUMOR, Dose [Carcinogen]: 2.5 MG/100 G BW IN 0.5 ML SESAME OIL ONCE, Promoter: NONE USED", "value": "7/19 (37%), 5/16 (31%), 15%, not calculated"}, {"measurement": "tumour outcome (control, treated, inhibition, significance)", "setting": "Carcinogen: 7,12-DIMETHYLBENZ[A]ANTHRACENE, 57-97-6, Dose [Inhibitor]: 0.8% IN POWDERED DIET BEGINNING 1 WK POST CARCINOGEN DOSE FOR 51 WK (STUDY DURATION: 52 WK), Route [Inhibitor]: ORAL, Species: RAT, Strain/Sex: SPRAGUE-DAWLEY/FEMALE, Target Tissue: Type of Lesion: MAMMARY GLAND: CARCINOMA, Dose [Carcinogen]: 2.5 MG/100 G BW IN 0.5 ML SESAME OIL ONCE, Promoter: NONE USED", "value": "6/19 (32%), 5/16 (31%), 0.9%, not calculated"}, {"measurement": "tumour outcome (control, treated, inhibition, significance)", "setting": "Carcinogen: 7,12-DIMETHYLBENZ[A]ANTHRACENE, 57-97-6, Dose [Inhibitor]: 0.8% IN POWDERED DIET BEGINNING 1 WK POST CARCINOGEN DOSE FOR 51 WK (STUDY DURATION: 52 WK), Route [Inhibitor]: ORAL, Species: RAT, Strain/Sex: SPRAGUE-DAWLEY/FEMALE, Target Tissue: Type of Lesion: MAMMARY GLAND: FIBROADENOMA, Dose [Carcinogen]: 2.5 MG/100 G BW IN 0.5 ML SESAME OIL ONCE, Promoter: NONE USED", "value": "15/19 (79%), 4/16 (24%), 70%, p<0.001"}, {"measurement": "tumour outcome (control, treated, inhibition, significance)", "setting": "Carcinogen: BENZO[A]PYRENE, 50-32-8, Dose [Inhibitor]: 0.03 MMOL/G OF DIET DAILY STARTING 8 D BEFORE AND CONTINUING THROUGH 3 D AFTER CARCINOGEN TREATMENT FOLLOWED BY OBSERVAT, Route [Inhibitor]: ORAL, Species: MOUSE, Strain/Sex: ICR/FEMALE, Target Tissue: Type of Lesion: FORESTOMACH: NEOPLASM, Dose [Carcinogen]: 1 MG IN 0.2 ML CORN OIL 2/WK FOR 4 WK, Promoter: NONE USED", "value": "94%, 85%, 10%, not significant"}, {"measurement": "tumour outcome (control, treated, inhibition, significance)", "setting": "Carcinogen: N-METHYL-N'-NITRO-N-NITROSOGUANIDINE, 70-25-7, N-ETHYL-N-HYDROXYETHYLNITROSAMINE, 13147-25-6, N-METHYLBENZYLNITROSAM, Carcinogen: N-METHYL-N'-NITRO-N-NITROSOGUANIDINE, 70-25-7, N-ETHYL-N-HYDROXYETHYLNITROSAMINE, 13147-25-6, N-METHYLBENZYLNITROSAM, Dose [Inhibitor]: 0, 1% IN DIET FOR 36 WK (STUDY DURATION: 36 WK), Route [Inhibitor]: ORAL, Species: RAT, Strain/Sex: F344/MALE, Target Tissue: Type of Lesion: COLON: CARCINOMA, Dose [Carcinogen]: 100 MG/KG BW MNNG ONCE, 750 MG/KG BW EHEN ONCE, 0.5 MG/KG BW MBN TWICE, 40 MG/KG BW DMH 4 TIMES, 0.05% DBN IN DRINKING W, Promoter: NONE USED", "value": "10/18 (56%), 4/18 (22%), 61%, not calculated"}, {"measurement": "tumour outcome (control, treated, inhibition, significance)", "setting": "Carcinogen: N-METHYL-N'-NITRO-N-NITROSOGUANIDINE, 70-25-7, N-ETHYL-N-HYDROXYETHYLNITROSAMINE, 13147-25-6, N-METHYLBENZYLNITROSAM, Carcinogen: N-METHYL-N'-NITRO-N-NITROSOGUANIDINE, 70-25-7, N-ETHYL-N-HYDROXYETHYLNITROSAMINE, 13147-25-6, N-METHYLBENZYLNITROSAM, Dose [Inhibitor]: 0, 1% IN DIET FOR 36 WK (STUDY DURATION: 36 WK), Route [Inhibitor]: ORAL, Species: RAT, Strain/Sex: F344/MALE, Target Tissue: Type of Lesion: ESOPHAGUS: PAPILLOMA, Dose [Carcinogen]: 100 MG/KG BW MNNG ONCE, 750 MG/KG BW EHEN ONCE, 0.5 MG/KG BW MBN TWICE, 40 MG/KG BW DMH 4 TIMES, 0.05% DBN IN DRINKING W, Promoter: NONE USED", "value": "3/18 (17%), 15/18 (83%), -388%, p<0.001"}, {"measurement": "tumour outcome (control, treated, inhibition, significance)", "setting": "Carcinogen: N-METHYL-N'-NITRO-N-NITROSOGUANIDINE, 70-25-7, N-ETHYL-N-HYDROXYETHYLNITROSAMINE, 13147-25-6, N-METHYLBENZYLNITROSAM, Carcinogen: N-METHYL-N'-NITRO-N-NITROSOGUANIDINE, 70-25-7, N-ETHYL-N-HYDROXYETHYLNITROSAMINE, 13147-25-6, N-METHYLBENZYLNITROSAM, Dose [Inhibitor]: 0, 1% IN DIET FOR 36 WK (STUDY DURATION: 36 WK), Route [Inhibitor]: ORAL, Species: RAT, Strain/Sex: F344/MALE, Target Tissue: Type of Lesion: FORESTOMACH: PAPILLOMA, Dose [Carcinogen]: 100 MG/KG BW MNNG ONCE, 750 MG/KG BW EHEN ONCE, 0.5 MG/KG BW MBN TWICE, 40 MG/KG BW DMH 4 TIMES, 0.05% DBN IN DRINKING W, Promoter: NONE USED", "value": "6/18 (33%), 15/18 (83%), -151%, p<0.01"}, {"measurement": "tumour outcome (control, treated, inhibition, significance)", "setting": "Carcinogen: N-METHYL-N'-NITRO-N-NITROSOGUANIDINE, 70-25-7, N-ETHYL-N-HYDROXYETHYLNITROSAMINE, 13147-25-6, N-METHYLBENZYLNITROSAM, Carcinogen: N-METHYL-N'-NITRO-N-NITROSOGUANIDINE, 70-25-7, N-ETHYL-N-HYDROXYETHYLNITROSAMINE, 13147-25-6, N-METHYLBENZYLNITROSAM, Dose [Inhibitor]: 0, 1% IN DIET FOR 36 WK (STUDY DURATION: 36 WK), Route [Inhibitor]: ORAL, Species: RAT, Strain/Sex: F344/MALE, Target Tissue: Type of Lesion: KIDNEY: RENAL CELL TUMOR, Dose [Carcinogen]: 100 MG/KG BW MNNG ONCE, 750 MG/KG BW EHEN ONCE, 0.5 MG/KG BW MBN TWICE, 40 MG/KG BW DMH 4 TIMES, 0.05% DBN IN DRINKING W, Promoter: NONE USED", "value": "8/18 (44%), 5/18 (28%), 36%, not calculated"}]}]}
